Assays:
Test in all cases: relative viability (nuclei count vs DMSO), 5 days (fraction); higher = more cells survive
NCI-H647 = test system: NCI-H647
Method in brief: (§1)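 Dosing by pin tool came one day after lung cancer cell lines were seeded in 1536-well plates, using either one drug or a fixed anchor-drug dose plus five library-drug doses (not always all listed) in √10 steps. After 5 days, nuclei were counted on 4× images. Relative viability is treated-well nuclei count divided by vehicle-well nuclei count, and values are medians of duplicate plates.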

NCI-H322M = test system: NCI-H322M
Method in brief: as §1

PC-3 [JPC-3] = test system: PC-3 [JPC-3]
Method in brief: as §1

NCI-H1650 = test system: NCI-H1650
Method in brief: as §1

LCLC-97TM1 = test system: LCLC-97TM1
Method in brief: as §1

NCI-H23 = test system: NCI-H23
Method in brief: as §1

NCI-H441 = test system: NCI-H441
Method in brief: as §1

NCI-H1915 = test system: NCI-H1915
Method in brief: as §1

NCI-H838 = test system: NCI-H838
Method in brief: as §1

NCI-H727 = test system: NCI-H727
Method in brief: as §1

SK-LU-1 = test system: SK-LU-1
Method in brief: as §1

NCI-H661 = test system: NCI-H661
Method in brief: as §1

NCI-H1792 = test system: NCI-H1792
Method in brief: as §1

EKVX = test system: EKVX
Method in brief: as §1

NCI-H1975 = test system: NCI-H1975
Method in brief: as §1

NCI-H520 = test system: NCI-H520
Method in brief: as §1

NCI-H1437 = test system: NCI-H1437
Method in brief: as §1

NCI-H460 = test system: NCI-H460
Method in brief: as §1

NCI-H1666 = test system: NCI-H1666
Method in brief: as §1

NCI-H596 = test system: NCI-H596
Method in brief: as §1

Cc1csc(=NC2CCCCC2)n1/N=C/c1ccc(O)c(O)c1O [MIM1] + CC(C)C[C@H](NC(=O)[C@H](Cc1ccccc1)NC(=O)c1cnccn1)B(O)O [Bortezomib] (partner 0.002 µM)
relative viability (NCI-H647; first compound 0.2 µM): 1.05
relative viability (NCI-H647; first compound 0.6325 µM): 0.878
relative viability (NCI-H647; first compound 2 µM): 0.98
relative viability (NCI-H647; first compound 6.325 µM): 0.769
relative viability (NCI-H647; first compound 20 µM): 0.237
relative viability (NCI-H322M; first compound 0.2 µM): 1.21
relative viability (NCI-H322M; first compound 0.6325 µM): 1.2
relative viability (NCI-H322M; first compound 2 µM): 1.35
relative viability (NCI-H322M; first compound 6.325 µM): 1.17
relative viability (NCI-H322M; first compound 20 µM): 1.08
relative viability (PC-3 [JPC-3]; first compound 0.2 µM): 0.862
relative viability (PC-3 [JPC-3]; first compound 0.6325 µM): 0.7
relative viability (PC-3 [JPC-3]; first compound 2 µM): 0.77
relative viability (PC-3 [JPC-3]; first compound 6.325 µM): 0.703
relative viability (PC-3 [JPC-3]; first compound 20 µM): 0.496
relative viability (NCI-H1650; first compound 0.2 µM): 0.263
relative viability (NCI-H1650; first compound 0.6325 µM): 0.204
relative viability (NCI-H1650; first compound 2 µM): 0.188
relative viability (NCI-H1650; first compound 6.325 µM): 0.212
relative viability (NCI-H1650; first compound 20 µM): 0.165
relative viability (LCLC-97TM1; first compound 0.2 µM): 0.66
relative viability (LCLC-97TM1; first compound 0.6325 µM): 0.811
relative viability (LCLC-97TM1; first compound 2 µM): 0.214
relative viability (LCLC-97TM1; first compound 6.325 µM): 0.346
relative viability (LCLC-97TM1; first compound 20 µM): 0.0592
relative viability (NCI-H23; first compound 0.2 µM): 1.08
relative viability (NCI-H23; first compound 2 µM): 0.702
relative viability (NCI-H23; first compound 6.325 µM): 0.851
relative viability (NCI-H23; first compound 20 µM): 0.167
relative viability (NCI-H441; first compound 0.2 µM): 0.593
relative viability (NCI-H441; first compound 0.6325 µM): 0.418
relative viability (NCI-H441; first compound 2 µM): 0.681
relative viability (NCI-H441; first compound 6.325 µM): 0.521
relative viability (NCI-H441; first compound 20 µM): 0.171
relative viability (NCI-H1915; first compound 0.2 µM): 0.989
relative viability (NCI-H1915; first compound 0.6325 µM): 0.857
relative viability (NCI-H1915; first compound 2 µM): 0.898
relative viability (NCI-H1915; first compound 6.325 µM): 0.461
relative viability (NCI-H1915; first compound 20 µM): 0.725
relative viability (NCI-H838; first compound 0.2 µM): 0.869
relative viability (NCI-H838; first compound 0.6325 µM): 0.808
relative viability (NCI-H838; first compound 2 µM): 0.78
relative viability (NCI-H838; first compound 6.325 µM): 0.53
relative viability (NCI-H838; first compound 20 µM): 0.136
relative viability (NCI-H727; first compound 0.2 µM): 0.671
relative viability (NCI-H727; first compound 0.6325 µM): 0.785
relative viability (NCI-H727; first compound 2 µM): 0.705
relative viability (NCI-H727; first compound 6.325 µM): 0.602
relative viability (NCI-H727; first compound 20 µM): 0.286
relative viability (SK-LU-1; first compound 0.2 µM): 1.05
relative viability (SK-LU-1; first compound 0.6325 µM): 1.09
relative viability (SK-LU-1; first compound 2 µM): 1.09
relative viability (SK-LU-1; first compound 6.325 µM): 0.962
relative viability (SK-LU-1; first compound 20 µM): 0.947
relative viability (NCI-H661; first compound 0.2 µM): 0.843
relative viability (NCI-H661; first compound 0.6325 µM): 0.861
relative viability (NCI-H661; first compound 2 µM): 0.648
relative viability (NCI-H661; first compound 6.325 µM): 0.453
relative viability (NCI-H661; first compound 20 µM): 0.221
relative viability (NCI-H1792; first compound 0.2 µM): 0.852
relative viability (NCI-H1792; first compound 0.6325 µM): 0.921
relative viability (NCI-H1792; first compound 2 µM): 0.922
relative viability (NCI-H1792; first compound 6.325 µM): 0.452
relative viability (NCI-H1792; first compound 20 µM): 0.851
relative viability (EKVX; first compound 0.2 µM): 1.03
relative viability (EKVX; first compound 0.6325 µM): 1.16
relative viability (EKVX; first compound 2 µM): 0.991
relative viability (EKVX; first compound 6.325 µM): 0.601
relative viability (EKVX; first compound 20 µM): 0.33
relative viability (NCI-H1975; first compound 0.2 µM): 0.428
relative viability (NCI-H1975; first compound 0.6325 µM): 0.381
relative viability (NCI-H1975; first compound 2 µM): 0.377
relative viability (NCI-H1975; first compound 6.325 µM): 0.231
relative viability (NCI-H1975; first compound 20 µM): 0.221
relative viability (NCI-H520; first compound 0.2 µM): 0.721
relative viability (NCI-H520; first compound 0.6325 µM): 0.353
relative viability (NCI-H520; first compound 2 µM): 0.684
relative viability (NCI-H520; first compound 6.325 µM): 0.401
relative viability (NCI-H520; first compound 20 µM): 0.184
relative viability (NCI-H1437; first compound 0.2 µM): 0.441
relative viability (NCI-H1437; first compound 0.6325 µM): 0.427
relative viability (NCI-H1437; first compound 2 µM): 0.536
relative viability (NCI-H1437; first compound 6.325 µM): 0.221
relative viability (NCI-H1437; first compound 20 µM): 0.112
relative viability (NCI-H460; first compound 0.2 µM): 1.12
relative viability (NCI-H460; first compound 0.6325 µM): 1.26
relative viability (NCI-H460; first compound 2 µM): 0.604
relative viability (NCI-H460; first compound 6.325 µM): 0.467
relative viability (NCI-H460; first compound 20 µM): 0.0328
relative viability (NCI-H1666; first compound 0.2 µM): 0.863
relative viability (NCI-H1666; first compound 0.6325 µM): 0.916
relative viability (NCI-H1666; first compound 2 µM): 0.722
relative viability (NCI-H1666; first compound 6.325 µM): 0.568
relative viability (NCI-H1666; first compound 20 µM): 0.249
relative viability (NCI-H596; first compound 0.6325 µM): 1.16
relative viability (NCI-H596; first compound 2 µM): 0.988
relative viability (NCI-H596; first compound 6.325 µM): 0.999
relative viability (NCI-H596; first compound 20 µM): 0.951

Reference: the supplement of paper PMC10307832
